From paper PMC11900971 (International Journal of Molecular Sciences, 2025)
Read-outs that look alike come from different tables or passages of the source.

Tests used:
[1] = tested on: L6 cells (rat skeletal myoblasts); settings: read-out: Cyt L6 IC50
[2] = tested on: Plasmodium falciparum, strain NF54, erythrocytic stages
[3] = tested on: Trypanosoma brucei rhodesiense, STIB 900 strain, bloodstream forms
[4] = tested on: L6 cells (rat skeletal myoblasts); experiment: cells; settings: L6, read-out: Cyt L6 IC50
[5] = tested on: Plasmodium falciparum, strain NF54, erythrocytic stages; experiment: microbe, parasite or virus in culture
[6] = tested on: Trypanosoma brucei rhodesiense, STIB 900 strain, bloodstream forms; experiment: microbe, parasite or virus in culture
[7] = NF54, read-out: P. falc. pIC50 (converted)
[8] = read-out: T. b. rhod. pIC50 (converted)

IC50 ([5]; NF54, read-out: P. falc. IC50) [nM]	IC50 [5, 7] [nM]	IC50 ([6]; read-out: T. b. rhod. IC50) [nM]	IC50 [6, 8] [nM]	P. falc. pIC50 [2]	Molecule	IC50 [1] [nM]	P. falc. pIC50 ([2]; pIC50 = -log10 IC50 (M), P. falciparum NF54)	SI (P. falc.) ([2]; ratio IC50 in L6 cells/IC50 in P. falciparum NF54)	IC50 ([2]; read-out: P. falc. IC50, P. falciparum strain NF54, erythrocytic stages) [nM]	T. b. rhod. pIC50 [3]	SI (T. b. rhod.) ([3]; ratio IC50 in L6 cells/IC50 in T. b. rhodesiense STIB900)	IC50 ([3]; read-out: T. b. rhod. IC50) [nM]	IC50 [4] [nM]
					2-Methyl-2-{[4-(4,4,4-trifluorobutanamido)phenyl]methyl}-1,4-naphthoquinone [Compound 2n]	14700	6.80	92	159	4.14	0	72200	
3	3.02				CCN(CC)CCCC(C)Nc1ccnc2cc(Cl)ccc12 (centres unmarked) [Chl., chloroquine, reference compound]								91100
358	355	62800	63100		CC1=C(Cc2ccccc2)C(=O)c2ccccc2C1=O [Compound 2a, 2-Benzyl-3-methyl-1,4-naphthoquinone]								45000
11	11.5	81400	81300		CC1=C(Cc2ccc(C(F)(F)F)cc2F)C(=O)c2ccccc2C1=O [Compound 2c, 2-{[2-Fluoro-4-(trifluoromethyl)phenyl]methyl}-3-methyl-1,4-naphthoquinone]								61700
20	20	23200	23400		CC1=C(Cc2ccc(F)cc2C(F)(F)F)C(=O)c2ccccc2C1=O [Compound 2d, 2-{[4-Fluoro-2-(trifluoromethyl)phenyl]methyl}-3-methyl-1,4-naphthoquinone]								62300
6	5.75	93000	93300		CC1=C(Cc2cc(C(F)(F)F)ccc2F)C(=O)c2ccccc2C1=O [Compound 2e, 2-{[2-Fluoro-5-(trifluoromethyl)phenyl]methyl}-3-methyl-1,4-naphthoquinone]								43000
37	37.2	8270	8320		CC1=C(Cc2ccc(Cl)nc2)C(=O)c2ccccc2C1=O [Compound 2f, 2-[(6-Chloropyridin-3-yl)methyl]-3-methyl-1,4-naphthoquinone]								24200
111	110	28000	28200		CC1=C(Cc2ccc([N+](=O)[O-])cc2)C(=O)c2ccccc2C1=O [Compound 2g, 2-Methyl-3-[(4-nitrophenyl)methyl]-1,4-naphthoquinone]								19100
22	21.4	25500	25700		CC1=C(Cc2ccc([N+](=O)[O-])cc2F)C(=O)c2ccccc2C1=O [Compound 2h, 2-[(2-Fluoro-4-nitrophenyl)methyl]-3-methyl-1,4-naphthoquinone]								17400
44	44.7	30400	30200		CC1=C(Cc2cc(F)c(F)cc2F)C(=O)c2ccccc2C1=O [Compound 2i, 2-Methyl-3-[(2,4,5-trifluorophenyl)methyl]-1,4-naphthoquinone]								54500
695	692	28900	28800		CC(=O)Nc1ccc(CC2=C(C)C(=O)c3ccccc3C2=O)cc1 [Compound 2j, 2-[(4-Acetamidophenyl)methyl]-3-methyl-1,4-naphthoquinone]								16300
758	759	39500	39800		CC(=O)Nc1cccc(CC2=C(C)C(=O)c3ccccc3C2=O)c1 [Compound 2k, 2-[(3-Acetamidophenyl)methyl]-3-methyl-1,4-naphthoquinone]								16600
147	148	23400	23400		CC1=C(Cc2ccc(NC(=O)C(F)(F)F)cc2)C(=O)c2ccccc2C1=O [Compound 2l, 2-Methyl-3-{[4-(2,2,2-trifluoroacetamido)phenyl]methyl}-1,4-naphthoquinone]								16100
321	324	24300	24000		CC1=C(Cc2cccc(NC(=O)C(F)(F)F)c2)C(=O)c2ccccc2C1=O [Compound 2m, 2-Methyl-3-{[3-(2,2,2-trifluoroacetamido)phenyl]methyl}-1,4-naphthoquinone]								13700
670	631	50800	51300	6.17	CC1=C(Cc2cccc(NC(=O)CCC(F)(F)F)c2)C(=O)c2ccccc2C1=O [Compound 2o, 2-Methyl-3-{[3-(4,4,4-trifluorobutanamido)phenyl]methyl}-1,4-naphthoquinone]								87500
43	42.7	33200	33100		CC1=C(Cc2ccc(F)cc2)C(=O)c2ccccc2C1=O [Compound 2p, 2-[(4-Fluorophenyl)methyl]-3-methyl-1,4-naphthoquinone]								51100
29	28.8	81600	81300		CC1=C(Cc2ccc(OC(F)(F)F)cc2)C(=O)c2ccccc2C1=O [Compound 2q, 2-Methyl-3-{[4-(trifluoromethoxy)phenyl]methyl}-1,4-naphthoquinone]								123000
49	49	26100	26300		CC1=C(Cc2cccc(OC(F)(F)F)c2)C(=O)c2ccccc2C1=O [Compound 2r, 2-Methyl-3-{[3-(trifluoromethoxy)phenyl]methyl}-1,4-naphthoquinone]								80500
38	38	75800	75900		CC1=C(Cc2cc(OC(F)(F)F)ccc2F)C(=O)c2ccccc2C1=O [Compound 2s, 2-{[2-Fluoro-5-(trifluoromethoxy)phenyl]methyl}-3-methyl-1,4-naphthoquinone]								83200
2760	2750	318	316		O=C1C=C(Cc2ccccc2)C(=O)c2ccccc21 [Compound 4a, 2-Benzyl-1,4-naphthoquinone]								61600
686	692	503	501		O=C1C=C(Cc2ccc(C(F)(F)F)cc2)C(=O)c2ccccc21 [Compound 4b, 2-{[4-(Trifluoromethyl)phenyl]methyl}-1,4-naphthoquinone]								19200
1760	1780	790	794		O=C1C=C(Cc2ccc(C(F)(F)F)cc2F)C(=O)c2ccccc21 [Compound 4c, 2-{[2-Fluoro-4-(trifluoromethyl)phenyl]methyl}-1,4-naphthoquinone]								37000
2310	2290	1740	1740		O=C1C=C(Cc2ccc(F)cc2C(F)(F)F)C(=O)c2ccccc21 [Compound 4d, 2-{[4-Fluoro-2-(trifluoromethyl)phenyl]methyl}-1,4-naphthoquinone]								38400
2010	2000	522	525		O=C1C=C(Cc2ccc(Cl)nc2)C(=O)c2ccccc21 [Compound 4e, 2-[(6-Chloropyridin-3-yl)methyl]-1,4-naphthoquinone]								3940
3800	3800	1880	1910		O=C1C(Cc2ccccc2)=C(C(F)(F)F)C(=O)c2ccccc21 [Compound 5a, 2-Benzyl-3-(trifluoromethyl)-1,4-naphthoquinone]								10800
1460	1450	1960	1950		O=C1C(Cc2ccc(C(F)(F)F)cc2)=C(C(F)(F)F)C(=O)c2ccccc21 [Compound 5b, 2-(Trifluoromethyl)-3-{[4-(trifluoromethyl)phenyl]methyl}-1,4-naphthoquinone]								2000
2310	2290	9410	9330		O=C1C(Cc2ccc(C(F)(F)F)cc2F)=C(C(F)(F)F)C(=O)c2ccccc21 [Compound 5c, 2-{[2-Fluoro-4-(trifluoromethyl)phenyl]methyl}-3-(trifluoromethyl)-1,4-naphthoquinone]								805
					COc1cc([C@@H]2c3cc4c(cc3[C@H](O)[C@H]3COC(=O)[C@H]23)OCO4)cc(OC)c1OC [Pod., podophyllotoxin, reference compound]								24

Molecule	IC50 ([5]; NF54, read-out: P. falc. IC50) [nM]	IC50 [5, 7] [nM]	IC50 ([6]; read-out: T. b. rhod. IC50) [nM]	IC50 [6, 8] [nM]	P. falc. pIC50 [2]	IC50 [1] [nM]	P. falc. pIC50 ([2]; pIC50 = -log10 IC50 (M), P. falciparum NF54)	SI (P. falc.) ([2]; ratio IC50 in L6 cells/IC50 in P. falciparum NF54)	IC50 ([2]; read-out: P. falc. IC50, P. falciparum strain NF54, erythrocytic stages) [nM]	T. b. rhod. pIC50 [3]	SI (T. b. rhod.) ([3]; ratio IC50 in L6 cells/IC50 in T. b. rhodesiense STIB900)	IC50 ([3]; read-out: T. b. rhod. IC50) [nM]	IC50 [4] [nM]
Nc1nc(N)nc(Nc2ccc([As]3SCC(CO)S3)cc2)n1 (centres unmarked) [Mel., melarsoprol, reference compound]			6	6.03									24200
